Like-named read-outs stand apart in the source and are kept apart here.
Legend:
Assay type in all cases: binding
HLA-C*07:01 = HLA-C*07:01 (Homo sapiens, UniProt P10321, K90N/S123Y); details: duplicated experiments, positive binder >40%
HLA-B*58:01 [1] = molecular target: T1, HLA-B*58:01 (Homo sapiens, UniProt P01889, A329T/C349S/D201E/D98Y/E176V/E187L/E204Q/E69T/G107R/I218V/I90N/K202T/L105A/L119I/N104I/N87E/Q89R/Q94S/R106L/R155S/R180L/R86G/S101N/S121R/S35A/S48A/T118I/V127L/V306I/V36M/Y140S/Y91M); details: duplicated experiments, positive binder >40%
HLA-A*68:01 [2] = molecular target: T2, HLA-A*68:01 (Homo sapiens, UniProt P04439, A269V/D185E/E176V/E277Q/E87N/F33Y/G231S/I121M/I166T/I218V/L180W/L300P/L318F/N151K/P208A/P217A/Q86R/R169H/T345S); details: duplicated experiments, positive binder >40%
HLA-A*68:01 [3] = molecular target: T2, HLA-A*68:01
HLA-B*58:01 [4] = molecular target: T1, HLA-B*58:01; details: time points 0-8 h
HLA-B*58:01 [5] = molecular target: T1, HLA-B*58:01
HLA-A*68:01 [6] = molecular target: T2, HLA-A*68:01; details: time points 0-8 h
HLA-A*02:01 [7] = molecular target: T3, HLA-A*02:01 (Homo sapiens, UniProt P04439, D140Y/D185E/D98H/E176V/E277Q/G131W/G231S/I119V/I121R/I166T/I218V/L300P/L318F/N151K/N90K/P208A/P217A/Q86G/Q94H/R138H/R169H/T345S); details: time points 0-8 h; time when 50% of peptide has dissociated
HLA-A*24:02 = HLA-A*24:02 (Homo sapiens, UniProt P04439, D101N/D140Y/D185E/E176V/E190D/F33S/G103R/G107R/I119L/I121M/I306V/K335N/L105A/L180Q/L300P/N151K/N90K/Q86E/Q94H/R106L/R138H/R89G/T104I/T345S/V100E/W191G/Y123F); details: duplicated experiments, positive binder >40%
HLA-A*30:01 = HLA-A*30:01 (Homo sapiens, UniProt P04439, D140H/D185E/E176W/F33S/G80R/H175R/K168Q/R138E/R41S); details: duplicated experiments, positive binder >40%
HLA-B*07:02 = HLA-B*07:02 (Homo sapiens, UniProt P01889); details: percent relative the binding of positive control peptide […]; duplicated experiments; positive binder >40%
HLA-A*02:01 [8] = molecular target: T3, HLA-A*02:01; details: peptide quantity for 50% binding saturation
HLA-A*30:02 [9] = molecular target: T4, HLA-A*30:02 (Homo sapiens, UniProt P04439, D101N/D140H/D185E/E176R/F33S/G80R/H175R/K168Q/Q94H/R138E/R41S/V100E); details: duplicated experiments, positive binder >40%
HLA-A*02:01 [10] = molecular target: T3, HLA-A*02:01; details: plate-bound monomer 0.5 µg/ml, duplicated experiments, positive binder >40%
HLA-A*30:02 [11] = molecular target: T4, HLA-A*30:02; details: time points 0-8 h
HLA-A*30:02 [12] = molecular target: T4, HLA-A*30:02
[13] = percent relative the binding of positive control peptide […]
[14] = percent relative the binding of positive control peptide RYLKDQQLL
[15] = percent relative the binding of positive control peptide KTKDIVNGL
[16] = percent relative the binding of positive control peptide KYFDEHYEY
[17] = percent relative the binding of positive control peptide IAMESIVIW
[18] = peptide titrated 10−4 to 10−9 M
[19] = percent relative the binding of positive control peptide KTGGPIYKR
[20] = percent relative the binding of positive control peptide KIQNFRVYY
[21] = percent relative the binding of positive control peptide FLPSDFFPSV

Sequence	Bind C*07:01 (HLA-C*07:01; [13])	Bind B*58:01 (HLA-B*58:01 [1]; [13])	Bind A*68:01 (HLA-A*68:01 [2]; [13])	Aff A*68:01 (ED50) (HLA-A*68:01 [3])	O-rate B*58:01 (t1/2) (HLA-B*58:01 [4])	Aff B*58:01 (ED50) (HLA-B*58:01 [5])	O-rate A*68:01 (t1/2) (HLA-A*68:01 [6])	Bind B*07:02 (HLA-B*07:02)	Bind A*24:02 (HLA-A*24:02; [13])	Bind A*30:01 (HLA-A*30:01; [13])	O-rate A*30:02 (t1/2) (HLA-A*30:02 [11])	Aff A*30:02 (ED50) (HLA-A*30:02 [12])	Bind A*30:02 (HLA-A*30:02 [9]; [13])	Bind A*02:01 (HLA-A*02:01 [10]; [13])	other results
RDTAEAAKW [Rv0288_86–94]	0%	45%	65%	1e-05 M	2.6 h	5 µM	4.3 h	–	–	–	–	–	–	–	–
KLAAAWGGS [Rv3875_38-46]	–	–	–	–	–	–	–	6%	–	–	–	–	–	–	O-rate A*02:01 (t1/2) (HLA-A*02:01 [7]): 2 h; Bind A*24:02 (HLA-A*24:02; [14]): 33%; Bind A*30:01 (HLA-A*30:01; [15]): 0%; Bind C*07:01 (HLA-C*07:01; [16]): 11%; Bind B*58:01 (HLA-B*58:01 [1]; [17]): 21%; Aff A*02:01 (ED50) (HLA-A*02:01 [8]; [18]): 0.1 µM; Bind A*68:01 (HLA-A*68:01 [2]; [19]): 0%; Bind A*30:02 (HLA-A*30:02 [9]; [20]): 39%; Bind A*02:01 (HLA-A*02:01 [10]; [21]): 57%
NLARTISEA [Rv3875_71–79]	–	–	–	–	–	–	–	10%	–	–	–	–	–	–	O-rate A*02:01 (t1/2) (HLA-A*02:01 [7]): 2.3 h; Bind A*24:02 (HLA-A*24:02; [14]): 11%; Bind A*30:01 (HLA-A*30:01; [15]): 15%; Bind C*07:01 (HLA-C*07:01; [16]): 12%; Bind B*58:01 (HLA-B*58:01 [1]; [17]): 21%; Aff A*02:01 (ED50) (HLA-A*02:01 [8]; [18]): 0.04 µM; Bind A*68:01 (HLA-A*68:01 [2]; [19]): 9%; Bind A*30:02 (HLA-A*30:02 [9]; [20]): 17%; Bind A*02:01 (HLA-A*02:01 [10]; [21]): 72%
AVYLLDGLR	4%	0%	114%	2E -07 M	–	–	1.1 h	0%	8%	1%	1.2 h	0.2 µM	115%	24%	–
WQGDTGITY [Rv0288_43–51]	0%	33%	61%	1e-05 M	1.8 h	8 µM	6.0 h	–	–	–	–	–	–	–	–
QSSFYSDWY	22%	39%	82%	1E -06 M	–	–	0.4 h	0%	0%	0%	2.2 h	0.6 µM	90%	0%	–
EQAALQSAW [Rv0288_35–43]	0%	79%	47%	1e-05 M	0.8 h	6 µM	2.8 h	–	–	–	–	–	–	–	–
QAWQAQWNQ [Rv0288_52–60]	0%	45%	55%	7e-06 M	0.5 h	4 µM	3.0 h	–	–	–	–	–	–	–	–
MLDHAGDMA [Rv0288_11–19m1]	–	–	–	–	–	–	–	–	–	–	–	–	–	48%	O-rate A*02:01 (t1/2) (HLA-A*02:01 [7]): 1.5 h; Aff A*02:01 (ED50) (HLA-A*02:01 [8]; […]): 0.06 µM
AVFNFPPNG	1%	33%	81%	8E -09 M	–	–	0.2 h	0%	23%	21%	0.3 h	3 µM	101%	69%	–
AMGDAGGYK	0%	0%	94%	5e-07 M	–	–	3.2 h	8%	0%	28%	1.6 h	0.7 µM	80%	31%	–
ITYQAWQAQ [Rv0288_49–57]	0%	78%	56%	9e-06 M	0.5 h	0.2 µM	1.9 h	–	–	–	–	–	–	–	–
